Measurements published in patent publication US5334589A, “Quinolone carboxylic acid--metal ion--acid complexes” (Abbott Laboratories, priority 1992, dated 1994).
Where two headings read alike, the source gives them in different places.

Columns and labels:
Solubility = assay type: physicochemical
rat tail vein = experiment: Vein irritation in rats (rat tail vein model); details: 100 mg/kg/day i.v., normal saline; for Normalized Rank: 5=normal
Procedure: Three studies were conducted: In Study I, four rats per group were given test compositions for three consecutive days at a concentration of 4 mg/ml (this and other concentrations expressed in terms of equivalent weight of temafloxacin base); in Study II, three rats per group were given test compositions for five consecutive days at 6 mg/ml; and in Study III, two groups of three rats each were given test compositions for five consecutive days at 4 mg/ml and 8 mg/ml, respectively. All rats were dosed at 100 mg/kg/day, with an infusion rate of 0.3 ml/minute.
Each rat was observed twice after each infusion: Once after 1-to-2 hours following injection, and again after 24 hours. Discoloration was ranked as follows:
4=Single red/pink spot of discoloration
3=Multiple red/pink spots of discoloration
2=Single purple spot of discoloration
1=Multiple purple spots of discoloration
0=Approx. one-fourth of distal tail discolored purple
Aggregate rankings were totaled for each group over the course of each study.

`CC1CN(c2cc3c(cc2F)c(=O)c(C(=O)O)cn3-c2ccc(F)cc2F)CCN1` (stereo not drawn) [temafloxacin, 1-(2,4-difluorophenyl)-6-fluoro-1,4-dihydro-7-(3-methyl-l-piperazinyl)-4-oxo-3-quinoline carboxylic acid] gave a solubility (Solubility; about pH 4 to about pH 10, read-out: solubility) of less than 500 µg/mL and a solubility (Solubility; temafloxacin base in water, read-out: solubility in water) of less than 500 µg/mL.

For `CC1CN(c2cc3c(cc2F)c(=O)c(C(=O)O)cn3-c2ccc(F)cc2F)CCN1` (stereo not drawn) [Control A], the “Normalized Rank” value (rat tail vein; Study I, 4 mg/ml, three consecutive days, group total / number of animals / number of measurements, 0=worst) was 2.29 and the “Total Rank” value (rat tail vein; Study I, 4 rats, 4 mg/ml, three consecutive days, discoloration rank 5=normal to 0=one-fourth of distal tail purple) was 55.

With `CC1CN(c2cc3c(cc2F)c(=O)c(C(=O)O)cn3-c2ccc(F)cc2F)CCN1` (stereo not drawn) [Control B] the “Normalized Rank” value (rat tail vein; Study II, 6 mg/ml, five consecutive days, 0=worst) was 3.23 and the “Total Rank” value (rat tail vein; Study II, 3 rats, 6 mg/ml, five consecutive days, rank 5=normal, 0=worst) was 97.
